Test results taken from PubChem BioAssay AID2060483 (Molecular Pharmacology Branch, DTP, NCI, 2025).

Tested on: K24384-001-R-PDC complex spheroids, viability
Test: Anticancer human tumor K24384-001-R-PDC patient-derived pancreatic adenocarcinoma cell line growth inhibition [GQUAD]
Settings: for IC50: curve of first compound; for viability, T/C: stronger effect = lower value
Procedure, shortened: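 Tumor cells were grown as complex spheroids with HUVEC endothelial cells and mesenchymal stem cells as stroma. G-quadruplex stabilizers were combined with targeted agents over half-log dilutions from near the clinical Cmax, or from 10 microM.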

[1] = second compound 0.0316 µM, first compound 0.0316 µM
[2] = second compound 0.0316 µM, first compound 0.1 µM
[3] = second compound 0.0316 µM, first compound 0.316 µM
[4] = second compound 0.0316 µM, first compound 1 µM
[5] = second compound 0.0316 µM, first compound 3.16 µM
[6] = second compound 0.0316 µM, first compound 10 µM
[7] = second compound 0.1 µM, first compound 0.0316 µM
[8] = second compound 0.1 µM, first compound 0.1 µM
[9] = second compound 0.1 µM, first compound 0.316 µM
[10] = second compound 0.1 µM, first compound 1 µM
[11] = second compound 0.1 µM, first compound 3.16 µM
[12] = second compound 0.1 µM, first compound 10 µM
[13] = second compound 0.316 µM, first compound 0.0316 µM
[14] = second compound 0.316 µM, first compound 0.1 µM
[15] = second compound 0.316 µM, first compound 0.316 µM
[16] = second compound 0.316 µM, first compound 1 µM
[17] = second compound 0.316 µM, first compound 3.16 µM
[18] = second compound 0.316 µM, first compound 10 µM
[19] = second compound 1 µM, first compound 0.0316 µM
[20] = second compound 1 µM, first compound 0.1 µM
[21] = second compound 1 µM, first compound 0.316 µM
[22] = second compound 1 µM, first compound 1 µM
[23] = second compound 1 µM, first compound 3.16 µM
[24] = second compound 1 µM, first compound 10 µM
[25] = second compound 3.16 µM, first compound 0.0316 µM
[26] = second compound 3.16 µM, first compound 0.1 µM
[27] = second compound 3.16 µM, first compound 0.316 µM
[28] = second compound 3.16 µM, first compound 1 µM
[29] = second compound 3.16 µM, first compound 3.16 µM
[30] = second compound 3.16 µM, first compound 10 µM
[31] = second compound 10 µM, first compound 0.0316 µM
[32] = second compound 10 µM, first compound 0.1 µM
[33] = second compound 10 µM, first compound 0.316 µM
[34] = second compound 10 µM, first compound 1 µM
[35] = second compound 10 µM, first compound 3.16 µM
[36] = second compound 10 µM, first compound 10 µM
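Further: spheroids exposed to compounds for seven days.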

CC(C)n1c(=O)n(C)c2cnc3cc(F)c(-c4ccc(OCCCN5CCCCC5)nc4)cc3c21 + CN(C)c1ccc(Nc2c3ccc(NC(=O)CCN4CCCC4)cc3nc3cc(NC(=O)CCN4CCCC4)ccc23)cc1
IC50 (second compound 0.0316 µM): > 10000 nM
IC50 (second compound 0.1 µM): > 10000 nM
IC50 (second compound 0.316 µM): > 10000 nM
IC50 (second compound 1 µM): > 10000 nM
IC50 (second compound 3.16 µM): 9510 nM
IC50 (second compound 10 µM): 622 nM
viability, T/C [1]: 97.1%
viability, T/C [2]: 82.6%
viability, T/C [3]: 109%
viability, T/C [4]: 116%
viability, T/C [5]: 119%
viability, T/C [6]: 84.1%
viability, T/C [7]: 85.7%
viability, T/C [8]: 101%
viability, T/C [9]: 121%
viability, T/C [10]: 99.4%
viability, T/C [11]: 122%
viability, T/C [12]: 79%
viability, T/C [13]: 80.5%
viability, T/C [14]: 97.2%
viability, T/C [15]: 109%
viability, T/C [16]: 110%
viability, T/C [17]: 129%
viability, T/C [18]: 86.9%
viability, T/C [19]: 77.9%
viability, T/C [20]: 88.7%
viability, T/C [21]: 92.8%
viability, T/C [22]: 118%
viability, T/C [23]: 109%
viability, T/C [24]: 67.3%
viability, T/C [25]: 90.2%
viability, T/C [26]: 89.2%
viability, T/C [27]: 105%
viability, T/C [28]: 95.7%
viability, T/C [29]: 78.2%
viability, T/C [30]: 48.7%
viability, T/C [31]: 69.8%
viability, T/C [32]: 70.5%
viability, T/C [33]: 55.9%
viability, T/C [34]: 44.7%
viability, T/C [35]: 31%
viability, T/C [36]: 21.5%

CC1COCCN1c1cc(-c2ccnn2C)c2ccnc(-c3ccn[nH]3)c2n1 (stereo not given) + CN(C)c1ccc(Nc2c3ccc(NC(=O)CCN4CCCC4)cc3nc3cc(NC(=O)CCN4CCCC4)ccc23)cc1
IC50 (second compound 0.0316 µM): 72.2 nM
IC50 (second compound 0.1 µM): 89.1 nM
IC50 (second compound 0.316 µM): 131 nM
IC50 (second compound 1 µM): 111 nM
IC50 (second compound 3.16 µM): 88.3 nM
IC50 (second compound 10 µM): 113 nM
viability, T/C [1]: 69.7%
viability, T/C [2]: 41.9%
viability, T/C [3]: 35.4%
viability, T/C [4]: 24.4%
viability, T/C [5]: 29.6%
viability, T/C [6]: 32.9%
viability, T/C [7]: 67.6%
viability, T/C [8]: 48%
viability, T/C [9]: 27.2%
viability, T/C [10]: 24.9%
viability, T/C [11]: 30.9%
viability, T/C [12]: 31.9%
viability, T/C [13]: 79.2%
viability, T/C [14]: 56.4%
viability, T/C [15]: 26.1%
viability, T/C [16]: 23.6%
viability, T/C [17]: 33.6%
viability, T/C [18]: 32.3%
viability, T/C [19]: 78.1%
viability, T/C [20]: 52%
viability, T/C [21]: 24.3%
viability, T/C [22]: 28.8%
viability, T/C [23]: 34.2%
viability, T/C [24]: 30.6%
viability, T/C [25]: 91.4%
viability, T/C [26]: 44.7%
viability, T/C [27]: 30.9%
viability, T/C [28]: 32.5%
viability, T/C [29]: 30.8%
viability, T/C [30]: 24.6%
viability, T/C [31]: 79.6%
viability, T/C [32]: 49%
viability, T/C [33]: 43.1%
viability, T/C [34]: 30.6%
viability, T/C [35]: 28.5%
viability, T/C [36]: 31.7%

CC1COCCN1c1cc(C2(O)CC3CCC(C2)O3)c2cnn(-c3ccn[nH]3)c2n1 (stereo not given) + CN(C)c1ccc(Nc2c3ccc(NC(=O)CCN4CCCC4)cc3nc3cc(NC(=O)CCN4CCCC4)ccc23)cc1
IC50 (second compound 0.0316 µM): 103 nM
IC50 (second compound 0.1 µM): 74.6 nM
IC50 (second compound 0.316 µM): 74.3 nM
IC50 (second compound 1 µM): 68.6 nM
IC50 (second compound 3.16 µM): 61.6 nM
IC50 (second compound 10 µM): 119 nM
viability, T/C [1]: 56.5%
viability, T/C [2]: 52%
viability, T/C [3]: 33.5%
viability, T/C [4]: 23.8%
viability, T/C [5]: 25.4%
viability, T/C [6]: 14.3%
viability, T/C [7]: 68%
viability, T/C [8]: 43.9%
viability, T/C [9]: 29.6%
viability, T/C [10]: 25.1%
viability, T/C [11]: 26.6%
viability, T/C [12]: 15%
viability, T/C [13]: 70.3%
viability, T/C [14]: 44%
viability, T/C [15]: 24.6%
viability, T/C [16]: 26%
viability, T/C [17]: 27.2%
viability, T/C [18]: 14.1%
viability, T/C [19]: 62.8%
viability, T/C [20]: 45%
viability, T/C [21]: 27.1%
viability, T/C [22]: 27.7%
viability, T/C [23]: 27.3%
viability, T/C [24]: 13.3%
viability, T/C [25]: 63.2%
viability, T/C [26]: 40.5%
viability, T/C [27]: 24.9%
viability, T/C [28]: 27.9%
viability, T/C [29]: 24.9%
viability, T/C [30]: 12.9%
viability, T/C [31]: 76.2%
viability, T/C [32]: 48.5%
viability, T/C [33]: 35.7%
viability, T/C [34]: 32.5%
viability, T/C [35]: 25.4%
viability, T/C [36]: 12.3%

CC1COCCN1c1cc(C2(S(C)(=N)=O)CC2)nc(-c2ccnc3[nH]ccc23)n1 (stereo not given) + CN(C)c1ccc(Nc2c3ccc(NC(=O)CCN4CCCC4)cc3nc3cc(NC(=O)CCN4CCCC4)ccc23)cc1
IC50 (second compound 0.0316 µM): 1530 nM
IC50 (second compound 0.1 µM): 1600 nM
IC50 (second compound 0.316 µM): 1710 nM
IC50 (second compound 1 µM): 1700 nM
IC50 (second compound 3.16 µM): 1680 nM
IC50 (second compound 10 µM): 1700 nM
viability, T/C [1]: 95.2%
viability, T/C [2]: 90.1%
viability, T/C [3]: 113%
viability, T/C [4]: 64.1%
viability, T/C [5]: 28.2%
viability, T/C [6]: 24.2%
viability, T/C [7]: 90.3%
viability, T/C [8]: 115%
viability, T/C [9]: 84.4%
viability, T/C [10]: 60.9%
viability, T/C [11]: 36.4%
viability, T/C [12]: 23.2%
viability, T/C [13]: 83.3%
viability, T/C [14]: 92.9%
viability, T/C [15]: 86.1%
viability, T/C [16]: 56.9%
viability, T/C [17]: 42.2%
viability, T/C [18]: 26.1%
viability, T/C [19]: 86.5%
viability, T/C [20]: 104%
viability, T/C [21]: 86.2%
viability, T/C [22]: 62.2%
viability, T/C [23]: 35.9%
viability, T/C [24]: 32.1%
viability, T/C [25]: 90.2%
viability, T/C [26]: 98.6%
viability, T/C [27]: 99.3%
viability, T/C [28]: 60.8%
viability, T/C [29]: 39.6%
viability, T/C [30]: 23.4%
viability, T/C [31]: 91.6%
viability, T/C [32]: 102%
viability, T/C [33]: 86.9%
viability, T/C [34]: 62.9%
viability, T/C [35]: 35.4%
viability, T/C [36]: 28.2%

COc1ccc([C@@H](O)c2cc(-c3ncnc4cc(N5CCOCC5)ccc34)c(F)cc2Cl)nn1 + CN(C)c1ccc(Nc2c3ccc(NC(=O)CCN4CCCC4)cc3nc3cc(NC(=O)CCN4CCCC4)ccc23)cc1
IC50 (second compound 0.0316 µM): 2100 nM
IC50 (second compound 0.1 µM): 2600 nM
IC50 (second compound 0.316 µM): 1610 nM
IC50 (second compound 1 µM): 1930 nM
IC50 (second compound 3.16 µM): 2540 nM
IC50 (second compound 10 µM): 1080 nM
viability, T/C [1]: 98.6%
viability, T/C [2]: 86.4%
viability, T/C [3]: 81.2%
viability, T/C [4]: 58.7%
viability, T/C [5]: 44.3%
viability, T/C [6]: 36.5%
viability, T/C [7]: 89.5%
viability, T/C [8]: 96.5%
viability, T/C [9]: 102%
viability, T/C [10]: 76.6%
viability, T/C [11]: 45.9%
viability, T/C [12]: 34.9%
viability, T/C [13]: 91.4%
viability, T/C [14]: 109%
viability, T/C [15]: 83.8%
viability, T/C [16]: 56.8%
viability, T/C [17]: 42.5%
viability, T/C [18]: 25.8%
viability, T/C [19]: 82.1%
viability, T/C [20]: 83.1%
viability, T/C [21]: 84.8%
viability, T/C [22]: 62.4%
viability, T/C [23]: 40.3%
viability, T/C [24]: 23.4%
viability, T/C [25]: 91.9%
viability, T/C [26]: 95.4%
viability, T/C [27]: 72.2%
viability, T/C [28]: 75.5%
viability, T/C [29]: 42.4%
viability, T/C [30]: 22.5%
viability, T/C [31]: 67.3%
viability, T/C [32]: 73.6%
viability, T/C [33]: 72.3%
viability, T/C [34]: 44.3%
viability, T/C [35]: 34.3%
viability, T/C [36]: 12.3%
